In US12098184B2, “G protein-coupled receptor (GPCR) ligand assay” (REGENTS OF THE UNIVERSITY OF MINNESOTA, priority 2017, dated 2024):
Bridge positions count the residues as written; N and C are the ends. Ends that are not written are not given here.

How the values were obtained:
α1AR-Ipep sensor = conditions: bicine-mediated GPMVs, 100 μM
V1R-Qpep sensor = test: FRET measurement with GPMV-V1R-Qpep sensors; assay type: biochemical; conditions: bicine-mediated GPMVs, 100 nM

Molecule | ΔFRET level with full agonist (α1AR-Ipep sensor) | ΔFRET level with full agonist (V1R-Qpep sensor)
CNC[C@H](O)c1ccc(O)c(O)c1 [epinephrine] | comparable to those obtained in the other experiments described herein | –
[Arg^8]vasopressin (CYFQNCPRG-NH2; disulfide 1-6) [[Arg^8]vasopressin (AVP), full agonist of V1R] | – | comparable to those obtained in the other experiments described herein
